Test results as given in paper PMC10571035 (Science translational medicine, 2020).

Target: T1, Heat shock factor 1 (HSF1) (Homo sapiens, UniProt Q00613)
T1 sequence (Q00613 15-120 limits assumed): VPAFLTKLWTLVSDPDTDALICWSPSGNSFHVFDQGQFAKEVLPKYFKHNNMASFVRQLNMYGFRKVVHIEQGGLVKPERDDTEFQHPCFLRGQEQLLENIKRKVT
Experiment: SPR Kd
Type: binding

O=C(Nc1ccc(F)cc1)Nc1ccc(Cl)c([N+](=O)[O-])c1 [DTHIB]
Kd: 160 nM
